Experimental data as given in article PMC7031696 (Cell chemical biology, 2019).
Where two headings read alike, the source gives them in different places.

What was measured:
[1] = system: asynchronous 3D7-A10 parasite cultures; experiment: Standard 72-h exposure asexual blood stage susceptibility assay (IC50^72h); type: cell-based, Plasmodium falciparum; conditions: Plasmodium falciparum, 3D7, 72 h, read-out: Overall (72hr assay) Mean IC50 (IC50^72h)
[2] = system: 3D7-A10 or Dd2-B2 parasites; conditions: 3 × IC50^72h drug concentrations; ref Phillips et al., 2015; cited from earlier work
[3] = system: Plasmodium falciparum 3D7-A10 parasites; experiment: Stage specificity assay (8-h exposure of synchronized stages, IC50^8h); type: cell-based; conditions: for IC50: Plasmodium falciparum
[4] = system: 3D7-MR4 trophozoite parasite-infected RBCs; experiment: Metabolomic profiling (hydrophilic metabolite changes, UHPLC-MS); type: cell-based, Plasmodium falciparum

O=C1C(O)=C([C@H]2CC[C@H](c3ccc(Cl)cc3)CC2)C(=O)c2ccccc21 [Atovaquone, reference compound]
IC50 [1]: 1.1 nM
minimum inoculum for resistance [2]: 2 × 10^7 parasites
overall activity profile (stages on which active) ([3]; 8-h exposures): activity against late trophozoites only
killing in stage specificity assay ([3]; 8-h exposures, survival curves): incomplete killing
IC50 ([3]; 3D7, read-out: Early rings Mean IC50, shift 2): 553 nM
IC50 ([3]; 3D7, read-out: Early trophozoites Mean IC50, shift 1): 0.68 nM
IC50 ([3]; 3D7, read-out: Early trophozoites Mean IC50, shift 2): 619 nM
IC50 ([3]; 3D7, read-out: Late rings Mean IC50, shift 2): 324 nM
IC50 ([3]; 3D7, read-out: Late trophozoites Mean IC50, shift 1): 3.7 nM
IC50 ([3]; 3D7, read-out: Schizonts IC50, shift 2): > 25000 nM
IC50 ([3]; 3D7, read-out: Schizonts Mean IC50, shift 1): 7.4 nM
shape of survival curve ([3]; early trophozoite and schizont stages): biphasic survival curve
Stage of peak activity (Figure 6) ([3]; period when the parasite was most susceptible (lowest IC50^8h)): late trophozoite stages
Peak Activity (Table S1) ([3]; stage(s) with the lowest IC50^8h): Late Trophs
Log2(fold change) Myristoyl/tetradecanoyl-CoA [4]: -0.0411
Log2(fold change) Octoluse 8/1P [4]: 0.0910
Log2(fold change) succinate/Methylmalonic acid [4]: -0.8517
Log2(fold change) succinyl-CoA/methylmalonyl-CoA [4]: -0.2938
Log2(fold change) threonine/homoserine [4]: 0.0177
metabolic signature: increases in the pyrimidine precursors dihydroorotate and N-carbamoyl-L-aspartate (mETC disruption) ([4]; 10 × IC50^72h, 2.5 hr, trophozoites): observed
Log2(fold changes) 3-phosphoglycerate ([4]; metabolite 3-phosphoglycerate, log2 fold change): -0.1329
Log2(fold changes) 4-Pyridoxic acid ([4]; metabolite 4-Pyridoxic acid, log2 fold change): 0.0014
Log2(fold changes) 4-aminobutyrate ([4]; metabolite 4-aminobutyrate, log2 fold change): 0.1923
Log2(fold changes) 4-phosphopantetheine ([4]; metabolite 4-phosphopantetheine, log2 fold change): 0.0048
Log2(fold changes) 4-phosphopantothenate ([4]; metabolite 4-phosphopantothenate, log2 fold change): -0.3512
Log2(fold changes) 5-aminopentanoic acid ([4]; metabolite 5-aminopentanoic acid, log2 fold change): -0.0149
Log2(fold changes) 5-methyl-THF ([4]; metabolite 5-methyl-THF, log2 fold change): -0.0146
Log2(fold changes) 5-phosphoribosyl-1-pyrophosphate ([4]; metabolite 5-phosphoribosyl-1-pyrophosphate, log2 fold change): -0.1198
Log2(fold changes) 6-phospho-D-gluconate ([4]; metabolite 6-phospho-D-gluconate, log2 fold change): 0.0051
Log2(fold change) HVDD ([4]; metabolite HVDD): 0.0262
Log2(fold change) Hydroxyisocaproic acid ([4]; metabolite Hydroxyisocaproic acid): -0.0150
Log2(fold change) IDP ([4]; metabolite IDP): 0.0185
Log2(fold change) IMP ([4]; metabolite IMP): 0.1599
Log2(fold change) Inositol ([4]; metabolite Inositol): 0.0000
Log2(fold change) Isopentyl-PP ([4]; metabolite Isopentyl-PP): -0.0191
Log2(fold change) L-arginino-succinate ([4]; metabolite L-arginino-succinate): 0.1909
Log2(fold change) LD ([4]; metabolite LD): 0.1960
Log2(fold change) N-Acetyl-L-alanine ([4]; metabolite N-Acetyl-L-alanine): -0.3227
Log2(fold change) N-acetyl-L-ornithine ([4]; metabolite N-acetyl-L-ornithine): 0.1921
Log2(fold change) N-acetyl-glucosamine-1/6-phosphate ([4]; metabolite N-acetyl-glucosamine-1/6-phosphate): 0.3531
Log2(fold change) N-acetyl-glutamate ([4]; metabolite N-acetyl-glutamate): 0.0422
Log2(fold change) N-acetyl-glutamine ([4]; metabolite N-acetyl-glutamine): -0.1228
Log2(fold change) N-carbamoyl-L-aspartate ([4]; metabolite N-carbamoyl-L-aspartate): 2.7565
Log2(fold change) NAD+ ([4]; metabolite NAD+): -0.0365
Log2(fold change) NADH ([4]; metabolite NADH): -0.0409
Log2(fold change) NADP+ ([4]; metabolite NADP+): 0.1141
Log2(fold change) NADPH ([4]; metabolite NADPH): -0.0085
Log2(fold change) O-acetyl-L-serine ([4]; metabolite O-acetyl-L-serine): 0.0000
Log2(fold change) Octoluse Bisphosphate ([4]; metabolite Octoluse Bisphosphate): -0.0867
Log2(fold change) PD ([4]; metabolite PD): 0.2066
Log2(fold change) PE ([4]; metabolite PE): 0.2833
Log2(fold change) PEE ([4]; metabolite PEE): 0.1525
Log2(fold change) PEEK ([4]; metabolite PEEK): 0.2544
Log2(fold change) PVNF ([4]; metabolite PVNF): -0.1256
Log2(fold change) Pyroglutamic acid ([4]; metabolite Pyroglutamic acid): -0.4514
Log2(fold change) Pyrophosphate ([4]; metabolite Pyrophosphate): -0.0311
Log2(fold change) Ribose-5-phosphate ([4]; metabolite Ribose-5-phosphate): -0.0776
Log2(fold change) S-adenosyl-L-homocysteine ([4]; metabolite S-adenosyl-L-homocysteine): -0.0546
Log2(fold change) S-adenosyl-L-methioninamine ([4]; metabolite S-adenosyl-L-methioninamine): 0.0342
Log2(fold change) S-adenosyl-L-methionine ([4]; metabolite S-adenosyl-L-methionine): 0.0000
Log2(fold change) S-methyl-5'-thioadenosine ([4]; metabolite S-methyl-5'-thioadenosine): 0.1207
Log2(fold change) SD ([4]; metabolite SD): 0.1611
Log2(fold change) SDL ([4]; metabolite SDL): 0.0455
Log2(fold change) SID ([4]; metabolite SID): 0.0448
Log2(fold change) Sedoheptulose bisphosphate ([4]; metabolite Sedoheptulose bisphosphate): -0.0991
Log2(fold change) Thiamine pyrophosphate ([4]; metabolite Thiamine pyrophosphate): 0.0203
Log2(fold changes) UDP-D-glucose ([4]; metabolite UDP-D-glucose, log2 fold change): 0.0102
Log2(fold changes) UDP-D-glucuronate ([4]; metabolite UDP-D-glucuronate, log2 fold change): -0.0044
Log2(fold changes) UDP-N-acetyl-glucosamine ([4]; metabolite UDP-N-acetyl-glucosamine, log2 fold change): -0.2854
Log2(fold changes) UDP ([4]; metabolite UDP, log2 fold change): -1.0636
Log2(fold changes) UMP ([4]; metabolite UMP, log2 fold change): -0.5975
Log2(fold changes) UTP ([4]; metabolite UTP, log2 fold change): -1.2395
Log2(fold change) hydroxyphenylpyruvate ([4]; metabolite hydroxyphenylpyruvate): 0.0147
Log2(fold change) hydroxyproline/Aminolevulinate ([4]; metabolite hydroxyproline/Aminolevulinate): -0.0689
Log2(fold change) hypoxanthine ([4]; metabolite hypoxanthine): -0.2575
Log2(fold change) indole ([4]; metabolite indole): -0.1736
Log2(fold change) inosine ([4]; metabolite inosine): -0.1123
Log2(fold change) isoleucine ([4]; metabolite isoleucine): -0.2949
Log2(fold change) lactate ([4]; metabolite lactate): -0.5142
Log2(fold change) leucine ([4]; metabolite leucine): -0.2842
Log2(fold change) lysine ([4]; metabolite lysine): 0.3188
Log2(fold change) malate ([4]; metabolite malate): -0.2336
Log2(fold change) maleic acid ([4]; metabolite maleic acid): -0.1204
Log2(fold change) methionine ([4]; metabolite methionine): -0.2848
Log2(fold change) myo-inositol ([4]; metabolite myo-inositol): -0.2098
Log2(fold change) nicotinamide mononucleotide ([4]; metabolite nicotinamide mononucleotide): -0.0768
Log2(fold change) nicotinate ([4]; metabolite nicotinate): -0.1572
Log2(fold change) ornithine ([4]; metabolite ornithine): 0.0045
Log2(fold change) orotate ([4]; metabolite orotate): 0.1233
Log2(fold change) orotidine-5'-phosphate ([4]; metabolite orotidine-5'-phosphate): -0.3697
Log2(fold change) oxaloacetate ([4]; metabolite oxaloacetate): -0.0126
Log2(fold change) p-aminobenzoate ([4]; metabolite p-aminobenzoate): -0.0050
Log2(fold change) p-hydroxybenzoate ([4]; metabolite p-hydroxybenzoate): 0.0562
Log2(fold change) pantothenate ([4]; metabolite pantothenate): -0.2044
Log2(fold change) phenylalanine ([4]; metabolite phenylalanine): -0.3684
Log2(fold change) phenylpyruvate ([4]; metabolite phenylpyruvate): 0.0000
Log2(fold change) phosphoenolpyruvate ([4]; metabolite phosphoenolpyruvate): -0.0614
Log2(fold change) prephenate ([4]; metabolite prephenate): -0.0378
Log2(fold change) proline ([4]; metabolite proline): -0.1933
Log2(fold change) pyridoxine ([4]; metabolite pyridoxine): -0.3758
Log2(fold change) pyruvate ([4]; metabolite pyruvate): -0.8812
Log2(fold change) riboflavin ([4]; metabolite riboflavin): -0.0986
Log2(fold change) ribose ([4]; metabolite ribose): -0.0745
Log2(fold change) ribose-phosphate ([4]; metabolite ribose-phosphate): -0.1162
Log2(fold change) ribulose-5-phosphate ([4]; metabolite ribulose-5-phosphate): -0.1031
Log2(fold change) serine ([4]; metabolite serine): 0.0478
Log2(fold change) sn-glycerol-3-phosphate ([4]; metabolite sn-glycerol-3-phosphate): 0.1848
Log2(fold change) taurine ([4]; metabolite taurine): 0.0315
Log2(fold change) thiamine ([4]; metabolite thiamine): -0.0450
Log2(fold change) thymidine ([4]; metabolite thymidine): -0.1873
Log2(fold changes) thymine ([4]; metabolite thymine, log2 fold change): 0.0000
Log2(fold changes) trehalose-6-Phosphate ([4]; metabolite trehalose-6-Phosphate, log2 fold change): 0.0905
Log2(fold changes) tryptophan ([4]; metabolite tryptophan, log2 fold change): -0.2480
Log2(fold changes) tyrosine ([4]; metabolite tyrosine, log2 fold change): -0.2052
Log2(fold changes) uridine ([4]; metabolite uridine, log2 fold change): -0.2906
